# Measured values reported in US7033829B2, “Method to inhibit cell growth using oligonucleotides” (Trustees of Boston University, priority 2000, dated 2006).
# How the values were obtained:
# [1] = tested on: Cu/Zn superoxide dismutase; assay: Cu/Zn superoxide dismutase mRNA in fibroblasts; assay type: cell-based; conditions: 48 and 72 hours after treatment
# [2] = tested on: BP DNA adducts (CAT reporter plasmid) in human keratinocytes; assay: Repair of BP-damaged CAT reporter plasmid in keratinocytes; assay type: cell-based; conditions: 100 μM 48 hours; ~25 or ~50 adducts/plasmid
# Protocol: The pCAT vector (Promega) was treated with benzo[a]pyrene-7,8-diol-9,10-epoxide (BP) as described (Athas et al. Cancer Res 1991) to produce less damaged and more damaged plasmids, previously shown to be instructive in studies examining different repair capacities in human cells. Based on the incorporation of ^3H-BPDE into the DNA, the less damaged plasmid contained 25 adducts per 5 kb plasmid and the more damaged plasmid contained 50 adducts. This non-replicating vector contains the chloramphenicol acetyltransferase gene under control of SV40 promoter and enhancer sequences. […] CAT enzyme activity was determined using the liquid scintillation counting protocol and components of the assay system kit (Promega). ^14C-labeled chloramphenicol[50–60 mCi(1.85–2.22 GBq)/mmol] was purchased from New England Nuclear (Boston, Mass.). […]
# To measure the repair of BP DNA adducts, non-replicating BP-damaged reporter plasmid system containing the bacterial chloramphenicol acetyltransferase (CAT) gene was used as described in Example 8. With first passage human keratinocytes, the transfection efficiency, as measured by the cotransfected β-galactosidase expression vector, was 40–70%.
# T cell proliferation = assay: Allogenic mixed lymphocyte reaction with keratinocyte culture medium; assay type: cell-based, human; conditions: >10 kD components of culture medium from 72 hour sample
# Protocol: The immunomodulatory effect of pTpT was tested in vitro using human keratinocytes. Duplicate cultures of primary human keratinocytes were treated with pTpT, diluent or UVB irradiation (200 J/m^2) or sham irradiation. Cells were collected at various times after treatment and analyzed for IL-10 protein by ELISA and for IL-10 mRNA by RT-PCR. An increase in IL-10 mRNA was detected after 6 hours in irradiated cells and after 48 hours in pTpT treated cells. An increase in IL-10 protein of 18 pg/ml was detected 24 hours after irradiation and 15±2 pg/ml 72 hours after treatment with pTpT. […] In the allogenic MLR, T cell activation is measured as lymphocyte proliferation, measured by ^3H-thymidine incorporation. IL-10 activity of culture medium from the 72 hour pTpT sample was measured by addition of the >10 kD components (containing the 18 kD IL-10 protein). […] Thus, like UVB irradiation, pTpT induces IL-10 in human keratinocytes which is likely to cooperate with TNFα to inhibit contact hypersensitivity in pTpT treated skin.
# [3] = tested on: tumor necrosis factor alpha gene (TNFα); assay: Northern blot of TNFα in keratinocytes; assay type: cell-based, human; conditions: 24–72 hours
# Text: This immunomodulatory cytokine, known to be induced by UV irradiation, may thus be induced by T2. Use of locally applied DNA fragments, deoxynucleotides, dinucleotides, or dinucleotide dimers is useful in immunomodulation of cutaneous reactions and in treatment or prevention of diseases or conditions involving immune mediators.
# [4] = tested on: BP DNA adducts (CAT reporter plasmid) in H1299 cells; assay: Repair of BP-damaged CAT reporter plasmid in H1299 cells; assay type: cell-based, human
# Protocol: Preconfluent cultures of H1299 cells were transfected with an expression vector containing the wild type human p53 cDNA under the control of the human cytomegalovirus promoter/enhancer (Dr. Bert Vogelstein, Johns Hopkins Oncology Center). Control transfections were performed using the same vector lacking the p53 cDNA. Transfections were carried out as described previously.
# The pCAT vector (Promega) was treated with benzo[a]pyrene-7,8-diol-9,10-epoxide (BP) as described (Athas et al. Cancer Res 1991) to produce less damaged and more damaged plasmids, previously shown to be instructive in studies examining different repair capacities in human cells. Based on the incorporation of ^3H-BPDE into the DNA, the less damaged plasmid contained 25 adducts per 5 kb plasmid and the more damaged plasmid contained 50 adducts. This non-replicating vector contains the chloramphenicol acetyltransferase gene under control of SV40 promoter and enhancer sequences. Human keratinocytes and p53-transfected H1299 cells were pre-treated with either 100 μM pTpT or an equal volume of diluent (DMEM) alone for 48 hours, then transfected with either BP-modified pCAT-control vector (0.5 μg/ml) or unmodified vector (0.5 μg/ml) together with PSV-β-galactosidase control vector (0.5 μg/ml). Cells were collected in a reporter lysis buffer (Promega) 24 hours after transfection. CAT enzyme activity was determined using the liquid scintillation counting protocol and components of the assay system kit (Promega). ^14C-labeled chloramphenicol[50–60 mCi(1.85–2.22 GBq)/mmol] was purchased from New England Nuclear (Boston, Mass.). CAT activity was normalized with β-galactosidase activity.
# To confirm that pTpT enhances repair of BP-DNA adducts, at least in part, through p53 activation, p53-null H1299 cells were transfected with the p53 expression vector, and p53 protein expression was then confirmed by western blot analysis 48 hours after transfection.
substance,measurement,setting,value
thymidine dinucleotide [pTpT],increase of Cu/Zn superoxide dismutase mRNA levels,[1],greater than 3 fold
same,"CAT expression relative to undamaged control vector, compared to diluent",[2],approximate doubling of CAT expression
same,reduction in T cell proliferation,T cell proliferation,80±5%
same,TNFα gene expression (Northern blot),[3],induction of the tumor necrosis factor alpha gene
same,plasmid repair efficiency versus diluent pre-treated cells,"[4]; p53+ H1299 cells, high level of BP damage",more than three times as efficiently
same,plasmid repaired more efficiently than in diluent pre-treated cells,"[4]; p53+ H1299 cells, low level of BP damage",80%±50%
same,repair capacity versus diluent,[4]; p53- H1299 cells,the repair capacity was the same
